Assay results reported in the OPERA property sets (Mansouri et al. 2018).

Details: for log10 biotransformation half-life (days) / log10 BCF: fish

SMILES	melting point	boiling point	further results
CC[C@H]1O[C@]2(CC[C@@H]1C)C[C@@H]1C[C@@H](CC=C(C)C[C@@H](C)C=CC=C3CO[C@@H]4[C@H](O)C(C)=C[C@@H](C(=O)O1)[C@]34O)O2	214 °C		
C=CC[C@H](C)O		116 °C	
C=CCSC		92 °C	
C[C@H](CCC(=O)O)[C@H]1CC[C@H]2[C@@H]3C(=O)C[C@@H]4CC(=O)CC[C@]4(C)[C@H]3CC(=O)[C@]12C	237 °C		
O=[N+]([O-])c1cccs1	46.5 °C	224 °C	
CCOC(=O)C(C)(C)C(C)=O		182 °C	
CCNc1cccc(O)c1	62 °C		
CN(C)CCc1c[nH]c2ccc(O)cc12	146 °C		
O=C(C=Cc1ccccc1)OCc1ccccc1	39 °C	350 °C	log10 vapour pressure (mmHg): -5
CC(=O)Nc1ccccc1C	110 °C	296 °C	
ClCc1cc(Cl)cc(Cl)c1	36 °C		
CCCCB(O)O	95 °C		
CCOc1ccccc1NC(C)=O	79 °C		
C#CCCCCCCCCCC	-19 °C	215 °C	
CC(C=O)=Cc1ccccc1		252 °C	log10 vapour pressure (mmHg): -1.82
Clc1cc(Cl)c(-c2c(Cl)c(Cl)c(Cl)c(Cl)c2Cl)c(Cl)c1Cl			log10 biotransformation half-life (days): 2.66
c1cncc([C@@H]2CCCCN2)c1	9 °C	276 °C	
O=C(OCC(=O)N1CCCCCC1)c1ccccc1	108 °C		
Cn1cc(-c2ccccc2)c(=O)c(-c2cccc(C(F)(F)F)c2)c1	154 °C		log10 Koc (L/kg): 2.85; log10 vapour pressure (mmHg): -7.01; ready biodegradability: not readily biodegradable
Cc1ccn2nc(S(=O)(=O)Nc3c(F)cccc3F)nc2n1	252 °C		log10 Koc (L/kg): 1.45; log10 vapour pressure (mmHg): -11.6
CC(=O)NC(CCC(N)=O)C(=O)O (centres undefined)	197 °C		
Cc1cc(Cl)ccc1O[C@H](C)C(=O)O			log10 vapour pressure (mmHg): -5.58
CCCCCCCOC(=O)CCC	-57.5 °C	226 °C	
CCC(Cc1c(I)cc(I)c(O)c1I)C(=O)O (centres undefined)	147 °C		

SMILES	melting point	boiling point	further results
COP(=O)(OC)OC(=CCl)c1cc(Cl)c(Cl)cc1Cl	96.3 °C		log10 Koc (L/kg): 3.01; log10 vapour pressure (mmHg): -7.38; ready biodegradability: not readily biodegradable; log10 BCF: 1.61; log10 biotransformation half-life (days): -1.02
Cc1ccc(C)c(C)c1	-43.8 °C	169 °C	log10 Henry constant (atm·m³/mol): -2.21; log10 biodegradation half-life (days): 0.602; log10 vapour pressure (mmHg): 0.322; ready biodegradability: not readily biodegradable; log10 BCF: 2.08; log10 biotransformation half-life (days): -0.31
O=C(OCCO)c1ccccc1O	37 °C		
COc1ccc2[nH]cc(CCN(C)C)c2c1	69.5 °C		
CCOc1ccc(Cc2nccc3cc(OCC)c(OCC)cc23)cc1OCC	100 °C		
COC(=O)c1cccc(C(=O)OC)c1	67.5 °C	282 °C	ready biodegradability: readily biodegradable
C=CCOC(C)=O		104 °C	log10 vapour pressure (mmHg): 1.43
O=CC[C@@H](O)C(O)[C@H](O)CO (stereo in doubt)	146 °C		
FC(F)(F)C(F)(F)C(F)(F)C(F)(F)N(C(F)(F)C(F)(F)C(F)(F)C(F)(F)F)C(F)(F)C(F)(F)C(F)(F)C(F)(F)F	-50 °C	178 °C	log10 vapour pressure (mmHg): -0.258; ready biodegradability: not readily biodegradable
CCCCCCCCCCCCS(=O)(=O)O			ready biodegradability: readily biodegradable
Cc1c(Cl)cccc1Cl	25.8 °C	198 °C	ready biodegradability: not readily biodegradable
O=C(O)CCCC(=O)O		303 °C	log10 vapour pressure (mmHg): -5.54
CCCOC/C(=N\c1ccc(Cl)cc1C(F)(F)F)n1ccnc1	63.5 °C		log10 vapour pressure (mmHg): -5.85
Clc1ccc(-c2nc3c4ccccc4ccn3n2)cc1	239 °C		
O=C(Cl)c1ccc([N+](=O)[O-])cc1	75 °C		
S=C1NC(=S)C(c2ccccc2)(c2ccccc2)N1	263 °C		
O=C(NC(=O)c1c(F)cccc1F)Nc1ccc(Cl)cc1	239 °C		log10 Koc (L/kg): 3.83; log10 vapour pressure (mmHg): -9.05; log10 BCF: 2.2
COc1cc(OC)nc(NC(=O)NS(=O)(=O)c2c(-c3nnn(C)n3)cnn2C)n1	170 °C		log10 Koc (L/kg): 1.89; log10 vapour pressure (mmHg): -10.5
CC(C)CC(C)CC(C)C		148 °C	
S=C(Nc1ccccc1)c1ccccc1	102 °C		
COc1cccc(C(=O)O)c1	107 °C		ready biodegradability: readily biodegradable
O=c1ccocc1	32.5 °C	212 °C	
CC(C)(O)c1ccccc1	36 °C	202 °C	
CNC(C)=O	28 °C	205 °C	log10 vapour pressure (mmHg): -0.356; ready biodegradability: readily biodegradable

SMILES	melting point	boiling point	further results
FC(F)(F)C(F)(F)C(F)(F)C(F)(F)C(F)(F)C(F)(F)C(F)(F)I		138 °C	
Clc1cc(Cl)c(-c2c(Cl)c(Cl)cc(Cl)c2Cl)c(Cl)c1Cl			log10 Henry constant (atm·m³/mol): -4.77; log10 biotransformation half-life (days): 2.46
CC(=O)O.CCCCCCCCCCCCCCCCCC1=NCCN1	65 °C		
Cc1ccccc1N(C)C	-60 °C	194 °C	log10 vapour pressure (mmHg): -0.0643
Clc1ccc(-c2ccccc2)c(Cl)c1			log10 Henry constant (atm·m³/mol): -3.55; log10 vapour pressure (mmHg): -2.86
Cc1c(C)c(Br)c(Br)c(Br)c1Br	262 °C	374 °C	
C=CC12CN(C)C3C4COC(CC41)[C@]1(C(=O)Nc4ccccc41)C32 (some centres undefined)	178 °C		
O=C(O)c1cc(O)c2ccccc2n1	282 °C		
O=C(C(=O)c1ccco1)c1ccco1	164 °C		
C#CCl	-126 °C	-30 °C	
COc1ccccc1OP(=O)(Oc1ccccc1OC)Oc1ccccc1OC	91 °C		
O=C1C(Br)=CC(=NCl)C=C1Br	83 °C		
CCCCCCCCOC(C)=O	-38.5 °C	210 °C	
Cc1ccc2c(ccc3ccccc32)c1	58 °C		log10 biodegradation half-life (days): 1.36; log10 BCF: 3.48
CCCCCCCCCCCCCCCCCCCCc1ccccc1	44 °C	429 °C	
NC(=O)c1ccc(C(F)(F)F)cc1	185 °C		
FC(F)Br	-145 °C	-15.5 °C	
NC(=O)Nc1ccc(Cl)c(Cl)c1			log10 Koc (L/kg): 2.53
CCCC(CC(OCC)OCC)OCC (centres undefined)	-100 °C		
CCCCCCCC(=O)NO	78.8 °C		
O=C(O)Cc1ccc(-c2ccccc2)cc1	160 °C		
Oc1cc(Cl)c(Br)cc1Cl			ready biodegradability: not readily biodegradable
COc1cc2ccc(=O)oc2cc1OC	146 °C		
CC(C)(C)c1cccc2ccccc12	-11.3 °C	279 °C	

SMILES	melting point	boiling point	further results
Oc1ccc([C@H]2COc3cc(O)ccc3C2)cc1	190 °C		
O=C(O)CCc1c[nH]c2ccccc12	134 °C		
O=CC=O	15 °C	50.4 °C	log10 Henry constant (atm·m³/mol): -8.48; log10 vapour pressure (mmHg): 2.41; ready biodegradability: readily biodegradable
FCCC(F)(F)F		29.4 °C	
Nc1ccc(I)cc1	67.5 °C		
CCCCCCCCCCCC1CCCC1	-10 °C	296 °C	
CNC(=O)Nc1ccc(Cl)c(Cl)c1			log10 Koc (L/kg): 2.46
Nc1cnn(-c2ccccc2)c(=O)c1Cl	205 °C		log10 Koc (L/kg): 2.08; log10 vapour pressure (mmHg): -6.35
CCN1CCN(c2cc3c(cc2F)c(=O)c(C(=O)O)cn3C2CC2)CC1	220 °C		
CCCCn1cccc1		170 °C	
O=C1c2ccccc2-c2ccc3c4c(ccc1c24)-c1ccccc1C3=O	385 °C		log10 Koc (L/kg): 4.28
OCc1c(Cl)cccc1Cl	98 °C		log10 BCF: 0.47; log10 biotransformation half-life (days): -1.37
Clc1ccc(Cl)c(-c2cc(Cl)c(Cl)cc2Cl)c1			log10 Henry constant (atm·m³/mol): -4.05; log10 Koa: 9.06; log10 Koc (L/kg): 5.22; log10 vapour pressure (mmHg): -4.6; log10 BCF: 5.47; log10 biotransformation half-life (days): 2.46
CCOC(=O)NC(N)=O	196 °C		
Clc1cc(Cl)c(-c2ccccc2)c(Cl)c1Cl			log10 Henry constant (atm·m³/mol): -3.68
CCCCC(CC)COCC(CC)CCCC (centres undefined)		269 °C	
O=[N+]([O-])c1ccccc1O	44.8 °C	216 °C	log10 Henry constant (atm·m³/mol): -4.89; log10 vapour pressure (mmHg): -0.947; ready biodegradability: not readily biodegradable; log10 BCF: 1.34
CCOc1ccc(N)c(N)c1	71.5 °C	295 °C	
CC(C)[C@@H](C)/C=C/[C@@H](C)[C@H]1CC[C@H]2C3=CC=C4C[C@@H](O)CC[C@]4(C)[C@H]3CC[C@]12C	127 °C		
CN(C(=O)COc1nc2ccccc2s1)c1ccccc1	135 °C		log10 vapour pressure (mmHg): -8.32
C/C=C/C=C/C=O		174 °C	log10 Henry constant (atm·m³/mol): -5.01
O=S(=O)(F)c1ccccc1		204 °C	
C=C1C(O)CC2(C(C)C)CC12 (centres undefined)		208 °C	
Cl.Cl.O=C1c2c(O)ccc(O)c2C(=O)c2c(NCCNCCO)ccc(NCCNCCO)c21	204 °C		

SMILES	melting point	boiling point	further results
Cc1cccc(Nc2ccccc2C(=O)O)c1C	230 °C		
COC(=O)c1ccc(Cl)cc1[N+](=O)[O-]	44 °C		
CC=CCCc1ccccn1		216 °C	
CCc1cccc(N)c1	-64 °C	214 °C	
Cc1cc(C)c(C)c(C)c1C	54.5 °C	232 °C	log10 vapour pressure (mmHg): -1.46
O[C@H](CS)[C@H](O)CS	62.8 °C		
CCC(C)C(C)(CC)CC (centres undefined)		162 °C	
CCCC(C)COC(C)=O (centres undefined)		163 °C	
C[C@@H]1CC2=CC(=O)CC[C@]2(C)[C@H]2CC[C@@]3(C)[C@@H](CC[C@]3(C)O)[C@H]12	146 °C		
Cc1c([N+](=O)[O-])cc2c(c1[N+](=O)[O-])C(C)(C)CC2(C)C	132 °C		
Cc1ncc(COP(=O)(O)O)c(C=O)c1O	255 °C		
OC(CNc1ccccn1)c1ccccc1 (centres undefined)	83.5 °C		
O=CCO	97 °C		log10 Henry constant (atm·m³/mol): -7.62
O=C1CC(C(=O)O)=CO1	164 °C		
ClCc1ccccc1	-45 °C	179 °C	log10 vapour pressure (mmHg): 0.0899; ready biodegradability: readily biodegradable
NC(=O)c1ccccc1Br	160 °C		
NC(=S)Nc1cccc2ccccc12	198 °C		
Clc1ccc(Oc2ccc(Cl)cc2Cl)c(Cl)c1			log10 biotransformation half-life (days): 2.28
CCOC(=O)c1ccc(N)cc1	92 °C	310 °C	
O=C1c2ccccc2C(=O)c2c(NCCO)ccc(NCCO)c21	248 °C		
CCOCCN(Cc1ccc(CN(CCOCC)C(=O)C(Cl)Cl)cc1)C(=O)C(Cl)Cl	140 °C		
OC(CCN1CCCCC1)(c1ccccc1)C1CC2C=CC1C2 (centres undefined)	114 °C		
Brc1cc2c(cc1Br)Oc1cc(Br)c(Br)cc1O2	334 °C		log10 vapour pressure (mmHg): -8.32
